In US8304382B2, “Anti-inflammatory and anti-allergic cyclic peptides” (Cristalia Productos Quimicos Farmaceuticos Ltda., priority 2006, dated 2012):
pKi: −log10 of the molar value. Bridge positions count the residues as written; N and C are the ends. Peptide text beside a SMILES is read from it.

Assays:
[1] = target: T1, trypsin (Bos taurus, UniProt P00760); test: Inhibition of trypsin, determination of inhibition constants (Ki); assay type: biochemical
T1 construct: gene PRSS1
T1 sequence (P00760 24-246): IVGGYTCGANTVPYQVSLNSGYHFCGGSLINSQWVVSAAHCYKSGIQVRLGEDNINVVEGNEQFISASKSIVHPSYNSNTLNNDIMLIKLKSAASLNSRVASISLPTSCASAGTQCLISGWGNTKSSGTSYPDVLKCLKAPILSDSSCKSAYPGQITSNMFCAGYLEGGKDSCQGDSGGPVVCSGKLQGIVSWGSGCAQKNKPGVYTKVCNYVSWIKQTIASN
Method: The substrate utilized was Abz-Phe-Arg-Ser-Ser-Arg-Gln-EDDnp (SEQ ID NO: 11), a fluorescent analog of bradykinin, purified by way of high pressure liquid chromatography, (HPLC) until purity greater than 95% (single peak) was achieved.
The hydrolysis reactions were conducted using a Hitachi. F-2000 spectrofluorometer, with the excitation and emission slits set at 10 and 20 nm, and the excitation and emission wavelengths at 320 and 420 nm, respectively. The temperature of the reaction cuvette was maintained at 37° C. in a thermostatically controlled compartment.
The enzymatic activity of trypsin (0.5-5 nM) was determined in 50 mM Tris-HCl buffer, pH 8.0, containing 20 mM NaCl at 37° C., with the addition of approximately 0.1-6.0 μM of the fluorescent substrates. The increase in fluorescence was monitored continually for 5 min in the spectrofluorometer. When necessary, the correction of the fluorescent reading was done using the empiric equation described by Araújo et. al., Biochemistry 25; 8519, 2000. Kinetic data were determined from the initial hydrolysis (consumption of substrate less than 10%) and calculations involving kinetic parameters (Km, Vmáx and kcat) were performed using the Michaelis-Menten equation furnished by the GRAFIT for Windows 3.0 program.
To determine the inhibition kinetics of trypsin with the peptides of the present invention, three substrate concentrations were used: a) corresponding to half of the value of Km (0.8 μM); b) corresponding to the whole value of Km (1.6 μM); c) corresponding to slightly more than double the value of Km (3.5 μM). […] Incubation carried out at 37° C. Tris-HCl buffer, pH 8.0, containing 20 mM NaCl at 37° C. For characterization of enzymatic inhibition, a Lineweaver-Burk plot was employed (1/V vs 1/S), and the value of Ki was determined from the relation between the apparent inhibition constant (Ki(app)) and the value of Km for the substrate: Ki(app)=[I]/[(v0/vi)−1] and Ki=Ki(app)/[(Km/[S])+1] where; [I]=inhibitor concentration; (v0/vi)=ratio of the hydrolysis velocities in the absence and presence of inhibitor, respectively. Km/[S]=ratio between Km of the substrate and substrate concentration.

[2] = system: recruitment of leukocytes in the peritoneal cavity; test: Prevention of peritonitis induced by LPS; assay type: in vivo, mice; conditions: 24 h
Method: Mice were injected intraperitoneally with 4 nmol or 40 nmol of the peptide identified by SEQ ID NO: 7 dissolved in 500 μL of sterile saline solution, 30 minutes prior to administering intraperitoneal injection of LPS (O55:BR 20 μg/mL, Sigma) diluted in 500 μL of sterile saline solution. Animals injected only with sterile saline were considered controls, 24 h after injection of LPS, the animals were sacrificed with a high dose of chloral hydrate to obtain the washing of the peritoneal cavity to count the number of cells (A), neutrophils (B) and macrophages (C). The material removed from the peritoneum was centrifuged for 10 minutes at 1500 rpm and 4° C., the supernatant was separated and frozen at −20° C. for future analyses, while the remaining material containing the cells was re-suspended in PBS 0.1% BSA. The total count was performed in a Neubauer chamber, For the differential count, an aliquot of the cellular suspension was placed on slides and centrifuged (Citospin), stained with Hema 3 and examined under the optical microscope, counting a total of 300 cells. The absolute number of each cellular population was obtained by multiplication of the percentages by the total number of cells found in the sample volume.

[3] = system: leukocytes and eosinophils recruited to the alveolar space; test: Acute pulmonary asthma induced by ovalbumin, bronchoalveolar lavage cell count; assay type: in vivo, BALB/c mice
Method: (§1) After the 14th day, the animals were submitted to 3 challenges per week with a 1% OVA aerosol, Immunized animals and challenged only with PBS (phosphate buffered saline) were considered controls. To induce chronic asthma, the animals were challenged 3 times a week during 3 consecutive weeks.
(§2) For the aerosol challenge, the animals were placed in a closed plastic box adapted with an ultra-sonic nebulizer (US-800, ICEL) and exposed to inhalation of 2 mL of a 1% solution of ovalbumin (grade V, Sigma) in saline, over 20 minutes, 24 h after the last aerosol challenge, the animals were sacrificed with a high dose of chloral hydrate to obtain the peripheral blood, the Broncho-Alveolar Lavage (BAL) and the pulmonary tissue to count the total number of leukocytes and eosinophils.
(§3) Groups of animals were treated with 4 nmol or 40 nmol of the peptide identified by SEQ ID NO: 7 intranasally and intraperitoneally 30 minutes before each challenge, and orally 1 hour before each challenge. The group of animals with chronic asthma was treated only with 4 nmol or 40 nmol of the peptide identified by SEQ ID NO: 7_intraperitoneally 30 minutes before each challenge.
(§4) The aerial space was washed with three, 1 mL aliquots of HBSS (Hanks Balanced Salt Solution) EDTA (ethylenediaminetetraacetic acid). After collection, the BAL was immediately centrifuged at 800 rpm for 10 minutes, the supernatant discarded, and the cellular button was re-suspended in 1 mL of HBSS 0.1% BSA (bovine serum albumin) to count the cells. The total cells from the BAL were counted in a Neubauer chamber. Aliquots containing 5×10^5 cells were centrifuged on glass slides using a cytocentrifuge, for 5 minutes at 600 rpm. To determine the percentages of the different cellular populations, the slides were stained with Hema 3 and 300 cells were counted in randomly selected fields. The absolute number of each cellular population in the BAL was obtained by multiplication of the percentages by the total number of cells found in the sample volume.

[4] = system: leukocytes and eosinophils recruited to the alveolar space; test: Chronic asthma induced by ovalbumin, bronchoalveolar lavage cell count; assay type: in vivo, BALB/c mice
Method: as §1, §2, §3, §4

[5] = 4 or 40 nmol i.p. 30 min before LPS, FIG. 4
[6] = 4 nmol or 40 nmol intraperitoneally, FIG. 6

CC[C@H](C)[C@H](N)C(=O)N1CCC[C@H]1C(=O)N[C@@H](CCCNC(=N)N)C(=O)N[C@H]1CSSC[C@@H](C(=O)O)NC(=O)[C@H](CCSC)NC(=O)[C@H](CCCCN)NC(=O)[C@H](C(C)C)NC(=O)CNC(=O)[C@@H]2CCCN2C(=O)[C@H](CCSC)NC(=O)[C@H](C)NC(=O)[C@H](CCCNC(=N)N)NC1=O [SEQ ID NO: 6, Ile1-Pro2-Arg3-Cys4-Arg5-Ala6-Met7-Pro8-Gly9-Val10-Lys11-Met12-Cys13] (H-IPRCRAMPGVKMC-OH; disulfide 4-13)
pKi [1]: 7.62

CC[C@H](C)[C@H](NC(C)=O)C(=O)N1CCC[C@H]1C(=O)N[C@@H](CCCNC(=N)N)C(=O)N[C@H]1CSSC[C@@H](C(=O)O)NC(=O)[C@H](CCSC)NC(=O)[C@H](CCCCN)NC(=O)[C@H](C(C)C)NC(=O)CNC(=O)[C@@H]2CCCN2C(=O)[C@H](CCSC)NC(=O)[C@H](CCCCN)NC(=O)[C@H](CCCNC(=N)N)NC1=O [SEQ ID NO: 8, Ac-Ile1-Pro2-Arg3-Cys4-Arg5-Lys6-Met7-Pro8-Gly9-Val10-Lys11-Met12-Cys13] (Ac-IPRCRKMPGVKMC-OH; disulfide 4-13)
pKi [1]: 7.61

CC[C@H](C)[C@@H]1NC(=O)[C@H](CCCCN)NC(=O)[C@H](CC(=O)O)NC(=O)[C@@H](NC(=O)[C@H](CCCNC(=N)N)NC(=O)[C@H](Cc2c[nH]cn2)NC(=O)[C@@H](N)CC(C)C)CSSC[C@@H](C(=O)O)NC(=O)[C@@H]2CCCN2C(=O)[C@H](CCCCN)NC(=O)[C@H](C)NC(=O)[C@H](CC(=O)O)NC(=O)[C@H](C)NC1=O [SEQ ID NO: 5, Leu1-His2-Arg3-Cys4-Asp5-Lys6-Ile7-Ala8-Asp9-Ala10-Lys11-Pro12-Cys13] (H-LHRCDKIADAKPC-OH; disulfide 4-13)
pKi [1]: 7.36

CC[C@H](C)[C@H](NC(C)=O)C(=O)N1CCC[C@H]1C(=O)N[C@@H](CCCNC(=N)N)C(=O)N[C@H]1CSSC[C@@H](C(N)=O)NC(=O)[C@H](CCSC)NC(=O)[C@H](CCCCN)NC(=O)[C@H](C(C)C)NC(=O)CNC(=O)[C@@H]2CCCN2C(=O)[C@H](CCSC)NC(=O)[C@H](CCCCN)NC(=O)[C@H](CCCNC(=N)N)NC1=O [SEQ ID NO: 9, Ac-Ile1-Pro2-Arg3-Cys4-Arg5-Lys6-Met7-Pro8-Gly9-Val10-Lys11-Met12-Cys13-NH2] (Ac-IPRCRKMPGVKMC-NH2; disulfide 4-13)
pKi [1]: 7.66

CC[C@H](C)[C@H](N)C(=O)N1CCC[C@H]1C(=O)N[C@@H](CCCNC(=N)N)C(=O)N[C@H]1CSSC[C@@H](C(=O)O)NC(=O)[C@H](CCSC)NC(=O)[C@H](CCCCN)NC(=O)[C@H](C(C)C)NC(=O)CNC(=O)[C@@H]2CCCN2C(=O)[C@H](CCSC)NC(=O)[C@H](CCCCN)NC(=O)[C@H](CCCNC(=N)N)NC1=O [SEQ ID NO: 1, Ile1-Pro2-Arg3-Cys4-Arg5-Lys6-Met7-Pro8-Gly9-Val10-Lys11-Met12-Cys13] (H-IPRCRKMPGVKMC-OH; disulfide 4-13)
pKi [1]: 7.65
type of inhibition of trypsin ([1]; FIG. 1): simple, competitive inhibition

CC[C@H](C)[C@@H]1NC(=O)[C@H]([C@@H](C)O)NC(=O)[C@@H](NC(=O)[C@H](CCC(N)=O)NC(=O)[C@H](CCC(=O)O)NC(=O)[C@@H](N)C(C)C)CSSC[C@@H](C(=O)O)NC(=O)[C@H](CC(=O)O)NC(=O)[C@H](CCCCN)NC(=O)[C@H](C)NC(=O)[C@H](CC(=O)O)NC(=O)CNC(=O)[C@H]([C@@H](C)CC)NC1=O [SEQ ID NO: 3, Val1-Glu2-Gln3-Cys4-Thr5-Ile6-Ile7-Gly8-Asp9-Ala10-Lys11-Asp12-Cys13] (H-VEQCTIIGDAKDC-OH; disulfide 4-13)
pKi [1]: 7.20

CC[C@H](C)[C@@H]1NC(=O)[C@H](CCC(=O)O)NC(=O)[C@H](CO)NC(=O)[C@@H](NC(=O)[C@H](CCC(N)=O)NC(=O)[C@H](CCC(N)=O)NC(=O)[C@@H](N)C(C)C)CSSC[C@@H](C(=O)O)NC(=O)[C@@H]2CCCN2C(=O)[C@H](CCCCN)NC(=O)[C@H](C)NC(=O)CNC(=O)[C@H](C)NC1=O [SEQ ID NO: 4, Val1-Gln2-Gln3-Cys4-Ser5-Glu6-Ile7-Ala8-Gly9-Ala10-Lys11-Pro12-Cys13] (H-VQQCSEIAGAKPC-OH; disulfide 4-13)
pKi [1]: 7.38

CC[C@H](C)[C@H](N)C(=O)N1CCC[C@H]1C(=O)N[C@@H](CCCNC(=N)N)C(=O)N[C@H]1CSSC[C@@H](C(N)=O)NC(=O)[C@H](CCSC)NC(=O)[C@H](CCCCN)NC(=O)[C@H](C(C)C)NC(=O)CNC(=O)[C@@H]2CCCN2C(=O)[C@H](CCSC)NC(=O)[C@H](CCCCN)NC(=O)[C@H](CCCNC(=N)N)NC1=O [SEQ ID NO: 7, Ile1-Pro2-Arg3-Cys4-Arg5-Lys6-Met7-Pro8-Gly9-Val10-Lys11-Met12-Cys13-NH2] (H-IPRCRKMPGVKMC-NH2; disulfide 4-13)
pKi [1]: 7.70
prevention of the recruitment of leukocytes in the peritoneal cavity ([2]; 4 nmol and 40 nmol i.p. 30 min before LPS, compared to the control): ~50%
recruitment of macrophages in the peritoneal cavity [2, 5]: prevented the recruitment
recruitment of neutrophils in the peritoneal cavity [2, 5]: prevented the recruitment
effect on recruitment of cells to the lung compared with oral dexamethasone 0.3 mg/Kg [3]: similar
total number of leukocytes recruited to the alveolar space ([3]; 4 nmol or 40 nmol, all routes (intranasal, intraperitoneal, oral), FIG. 5): provoked a decrease
eosinophils in the bronchoalveolar lavage ([3]; 4 nmol or 40 nmol, all routes, FIG. 5): absence of eosinophils
effect on recruitment of cells to the lung compared with oral dexamethasone 0.3 mg/Kg [4]: similar
eosinophils in the bronchoalveolar lavage [4, 6]: decrease in eosinophils
total number of leukocytes recruited to the alveolar space [4, 6]: provoked a decrease

CC[C@H](C)[C@@H]1NC(=O)[C@H]([C@@H](C)O)NC(=O)[C@@H](NC(=O)[C@H](CCC(N)=O)NC(=O)[C@H](CCC(=O)O)NC(=O)[C@@H](N)C(C)C)CSSC[C@@H](C(=O)O)NC(=O)[C@H](CC(=O)O)NC(=O)[C@H](CCCCN)NC(=O)[C@H](CCC(=O)O)NC(=O)[C@H](CC(=O)O)NC(=O)CNC(=O)[C@H]([C@@H](C)CC)NC1=O [SEQ ID NO: 2, Val1-Glu2-Gln3-Cys4-Thr5-Ile6-Ile7-Gly8-Asp9-Glu10-Lys11-Asp12-Cys13] (H-VEQCTIIGDEKDC-OH; disulfide 4-13)
pKi [1]: 7.62
